Data from patent publication US20250130239A1, “PROTEIN DEGRADER” (University of Dundee, priority 2021, published 2025).

Assays:
HEK293 cells = assay: CellTiter-Glo cell viability assay, HEK293; format: cell-based, human; details: up to 10 μM; 48 h
[1] = target: T1, VHL, compound preincubated with Brd4^BD2 L387A (Homo sapiens, UniProt O60885+P40337, L387A); assay: Fluorescence polarization competitive binding assay, ternary complex binding; details: displacement of HIF-1a peptide probe, read-out: ternary binding affinity Kd
T1 construct: N-terminally Hiss-tagged VHL (54-213); N-terminally His6-tagged Brd4-BD2^L387A (333-460) was expressed in E. coli; His6 (N, cleaved yes); made in house; host or cells: E. coli
Method: Protein Expression and Purification. […] The complex was further purified by anion exchange followed by gel filtration chromatography.
Fluorescence Polarization Binding Assay. […] All components were dissolved from stock solutions using 100 mM Bis-Tris propane, 100 mM NaCl, 1 mM DTT, pH 7.0, to yield a final assay volume of 15 μL. DMSO was added as appropriate to ensure a final concentration of 2% v/v. […] Percentage displacement values were obtained by normalization of controls were plotted against Log[Compound]. IC50 values were determined for each titration using nonlinear regression analysis with Prism (v. 9.1.0, GraphPad). […] Cooperativity values (a) for each PROTAC were calculated using the ratio: α=binary Kd (−bromodomain)/ternary Kd (+bromodomain).

[2] = In vivo PK profiling of AGB1; set-up: species or system C57BL/6 male mice; details: SC (5 mg/kg), mice
Method: In Vivo PK Profiling. Pharmacokinetic profiling was outsourced and undertaken by Shanghai ChemPartner Co., Ltd. Six to eight-week-old, C57BL/6 male mice purchased from Jihui Laboratory Animal Co. LTD were used in the study. […] The animals were restrained manually at the designated time points (0.083, 0.25, 0.5, 1, 2, 4 and 8 h), approximately 110 μL of blood sample was collected via facial vein into K2EDTA tubes. Three mice per time point were used resulting in a total of […]. Blood sample was put on ice and centrifuged at 2000 g for 5 mins to obtain plasma sample within 15 min. Plasma samples were stored at approximately −70° C. until analysis. A 30 μL aliquot of plasma was added with 200 μL internal standard (Diclofenac, 40 ng/mL) in 1% formic acid in MeCN. The mixture was then vortexed for 1 min and then centrifuged for 10 min at 5800 rpm. 100 μL of supernatant was transferred to a new plate. 0.5 μL of solvent was injected to LC-MS/MS. LC-MS/MS instrument used: SCIEX LC-MS/MS-45 (Triple Quad 6500+). Data was analysed by WinNonLin and Microsoft Excel.

22RV1 cells = assay: CellTiter-Glo cell viability assay, 22RV1; format: cell-based, human; details: up to 10 μM; 48 h
Method: Cell Viability Assay. MV-4-11 cells were plated at a density of 2×10^4 cell per well of a 96 well white-bottom plate, and left to grow overnight in 50 μl of IMDM (Invitrogen, arlsebad, CA, USA) supplemented with 10% (v/v) Fetal bovine serum (FBS) (Thermo Fisher, Waltham, MA, USA) and 1% (v/v) penicillin/streptomycin (pen/strep) (#15140122, Thermo Fisher, Waltham, MA, USA) at 37° C., 5% CO2, and 95% humidity. […] These cells were then left to incubate at 37° C., 5% CO2, and 95% humidity for one day prior to undergoing spectrophotometric analysis. 22RV1 cells were plated at a density of 2×10^4 cell per well of a 96 well white-bottom plate, and left to grow overnight in 100 μL of RPMI-1640 (Invitrogen, Carlsebad, CA, USA) supplemented with 10% (v/v) fetal bovine serum (FBS) (Thermo Fisher, Waltham, MA, USA) and 1% (v/v) penicillin/streptomycin (pen/strep) (#15140122, Thermo Fisher, Waltham, MA, USA) at 37° C., 5% CO2, and 95% humidity. […] Plates were subjected to 2 mins on an orbital shaker to encourage lysis and left for a further 5 mins to reach peak luminescence. Luminescence was then recorded on a BMG Labtech PHERAstar luminescence plate reader with recommended settings. Data extracted from this analysis was analysed with Graphpad Prism (v. 8.2.0, GraphPad) and normalized to the DMSO vehicle control. […]

## CC[C@@H](C(=O)OCCOCCOCCOCC(=O)N[C@H](C(=O)N1C[C@H](O)C[C@H]1C(=O)NCc1ccc(-c2scnc2C)cc1)C(C)(C)C)[C@@H]1N=C(c2ccc(Cl)cc2)c2c(sc(C)c2C)-n2c(C)nnc21 (single isomer, unassigned) [AGB1 (46)]
HEK293 cells
  cytotoxicity: lack of cytotoxicity
[1]
  Kd: 11 nM
[2]
  F (%): 140%
22RV1 cells
  cytotoxicity: lack of cytotoxicity
